Results: ChEMBL document CHEMBL3886525, “Pyrazolo[3,4-c]pyridine compounds and methods of use” (2016)

Biological target: Serine/threonine-protein kinase pim-1 (Homo sapiens, UniProt P11309)
Experiment: A fluorescent-labeled Pim-specific peptide substrate, was custom synthesized by American Peptide Company (Sunnyvale, Calif.). Reaction Buffer contained 10 mM HEPES, pH 7.2, 10 mM MgCl2, 0.01% Tween 20, 2 mM DTT.

Chain of Serine/threonine-protein kinase pim-1 (P11309 whole entry): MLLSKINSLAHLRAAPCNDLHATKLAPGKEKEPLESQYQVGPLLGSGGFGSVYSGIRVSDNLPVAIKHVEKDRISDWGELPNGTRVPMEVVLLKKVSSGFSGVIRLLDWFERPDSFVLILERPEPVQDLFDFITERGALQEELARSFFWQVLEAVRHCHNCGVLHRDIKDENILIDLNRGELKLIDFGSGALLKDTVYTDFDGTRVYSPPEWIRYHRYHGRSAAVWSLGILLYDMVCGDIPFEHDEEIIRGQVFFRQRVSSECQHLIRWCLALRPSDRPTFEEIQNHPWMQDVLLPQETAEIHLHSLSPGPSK

| SMILES | Ki |
| --- | --- |
| Cc1n[nH]c2cnc(-c3cccc(F)c3)cc12 | 2200 nM |
| c1cncc(-c2cc3c(-c4cccc(N5CCOCC5)n4)n[nH]c3cn2)c1 | 0.262 nM |
| c1cncc(-c2cc3c(-c4cccc(N5CCCCC5)n4)n[nH]c3cn2)c1 | 0.415 nM |

The next lines start with the values.

| Ki | SMILES |
| --- | --- |
| 9.65 nM | c1ccc(-c2n[nH]c3cnc(-c4cccnc4)cc23)cc1 |
| 1.41 nM | CCn1cc(-c2cc3c(-c4ccc(=O)n(CC5(C(N)=O)CC5)c4)n[nH]c3cn2)cn1 |
| 122 nM | Fc1ccccc1-c1n[nH]c2cnc(-c3cccnc3)cc12 |
| 0.118 nM | N[C@@H]1CCN(c2nc(-c3n[nH]c4cnc(-c5cccnc5)cc34)ccc2Br)C1 |
